# Publication PMC9946977, “Identification of linderalactone as a natural inhibitor of SHP2 to ameliorate CCl4-induced liver fibrosis” (Frontiers in Pharmacology, 2023)
# Columns and labels:
# [1] = biological target: T1, SHP2-PTP WT (Homo sapiens, UniProt Q06124); experiment: BLI assay, wildtype SHP2-PTP; conditions: 1:1 binding model
# T1 construct: Human SHP2 PTP domain (A237–I529) expression constructs; His-tag; made in house; host or cells: E. coli BL21 (DE3)
# T1 sequence (Q06124 237-529): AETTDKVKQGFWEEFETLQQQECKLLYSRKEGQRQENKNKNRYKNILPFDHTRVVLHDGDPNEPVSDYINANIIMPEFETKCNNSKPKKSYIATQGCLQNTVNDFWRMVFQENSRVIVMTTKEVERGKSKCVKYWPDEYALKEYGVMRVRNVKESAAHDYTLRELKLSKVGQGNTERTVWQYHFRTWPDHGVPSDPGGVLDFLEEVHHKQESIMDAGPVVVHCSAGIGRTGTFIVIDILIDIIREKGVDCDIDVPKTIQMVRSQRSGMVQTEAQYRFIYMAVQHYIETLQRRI
# Experimental: The BLI assay was performed using a FortéBio Octet 96 system. To label the biotin group on SHP2 proteins, NHS-PEG12-Biotin […] was added to the purified SHP2-PTP solution […] at 1.5:1 ratio for 2 h at 4°C. The reaction mixture was then loaded onto a column (GENEMORE, #G-MM-IGT) to remove excess free biotin. The biotin-labelled-SHP2-PTP protein was loaded onto super streptavidin (SSA) sensors (#18-5057, Octet) in a buffer containing […] 25 mM HEPES, 150 mM NaCl, and 0.02% (v/v) Tween-20. After equilibrium, the kinetics of the LIN and SHP2-PTP association were analysed by soaking the SSA sensors in a compound solution with various LIN concentrations for 300 s (6.25, 12.5, 25, 50, 100, and 200 μM), followed by 300 s of dissociation in the same HEPES buffer. The equilibrium constant (KD) values were assessed using the FortéBio data analysis software by fitting the kinetic data using a 1:1 binding model.
# [2] = system: LX-2 cells; experiment: LX-2 cells: fibrogenic gene expression and Smad2/3 phosphorylation; format: cell-based, human
# Experimental: The LX-2 cell line was purchased from the Cell Bank Type Culture Collection of the Chinese Academy of Sciences (Shanghai, China). Cells were cultured in DMEM supplemented with 10% [v/v] foetal bovine serum, 2 mM glutamine, 100 U/ml penicillin, and […] streptomycin. SHP-2 and control siRNAs were obtained from Suzhou GenePharma Co., Ltd. (sense 5'-3': GAGAGAGGAAAGAGUAAAUTT; antisense 5'-3': AUUUACUCUUUCCUCUCUCTT). Transfection was performed according to the manufacturer’s instructions. Subsequent real-time PCR and western blotting were performed to analyse transfection efficiency.
# Total RNA was extracted from liver tissues and LX-2 cells using the TRIzol reagent. cDNA was synthesised using a PrimeScript RT Master Mix kit. […] Relative expression of target genes was normalised to actin, analysed by the delta-delta-CT method and given as a ratio compared with the vehicle control. […]
# Liver proteins were isolated by using a lysis buffer containing 50 mM Tris-HCl (pH7.5), 150 mM NaCl, 1 mM EDTA, 20 mM NaF, 0.5% NP-40, 10% glycerol, 1 mM phenylmethylsulphonyl fluoride, 10 μg/mL aprotinin, 10 μg/mL leupeptin, and 10 μg/mL pepstatin. The supernatants were collected after centrifugation at 3,000 g for 10 min at 4°C, and the protein concentration of each sample was determined and normalised to the same protein concentration. […]
# [3] = system: mouse liver; experiment: LIN alone in mice (toxicity); format: in vivo, C57BL/6 mice; conditions: LIN alone 40 mg/kg i.g. once per day, 4 weeks
# Experimental: C57BL/6 mice (20 ± 2 g) were obtained from Hangzhou Medical College Experimental Animal Center (Hangzhou, China). The animals were maintained under controlled temperature (22°C ± 1°C), humidity (50%), and light (12 h light/12 h dark). The animals were fed a standard laboratory diet and provided with free access to tap water. All animals received humane care according to institutional animal care guidelines approved by the Experimental Animal Ethical Committee of Hangzhou Medical College. […] After treatment, the mice were sacrificed, and plasma and liver tissues were collected and further analysed.
# Serum was collected from blood samples after centrifugation at 860 × g for 15 min. Serum ALT (Nanjing Jiancheng Bioengineering Institute, C010-2-1) and AST (Nanjing Jiancheng Bioengineering Institute, C009-2-1) activities were measured using kits, according to the manufacturer’s instructions. Liver hydroxyproline content was determined using the alkaline hydrolysis method, as described in the kits. Serum levels of laminin (LN) were measured using ELISA kits, according to the manufacturer’s instructions (Shanghai YANJIN Biological Technology Co., LTD, F12019). […]
compound,measurement,setting,value
"C/C1=C\CCC2=C[C@@H](OC2=O)c2c(C)coc2C1 [LIN, linderalactone]",Kd,[1],666 µM
same,"fibrogenic gene expression (e.g., ACTA2, VIM, TGF-β, FN1, DES, COL1A1)","[2]; 10 μM LIN, 24 h, qPCR",significantly decreased
same,phosphorylation level of smad2/3,"[2]; LIN 5 and 10 μM, Western blot",significant reduced
same,ALT/AST,[3],no obvious alteration
same,pathological changes in mouse liver tissue,[3],no obvious alteration
